pIC50: −log10 of the molar value.
Columns and labels:
[1] = tested on: Human peripheral blood mononuclear cells (PBMC); assay: TNF-α release from LPS-stimulated PBMC; type: cell-based; conditions: Lipopolysaccharide 1 microg/ml, 18 hours, AlphaLISA, read-out: TNF-α IC50 range
Procedure: Human peripheral blood mononuclear cells (PBMC) were isolated from fresh buffy coats by density centrifugation using lymphoprep tubes (Medinor). Frozen PBMC's were washed in serum free assay buffer (RPMI1640 with 25 mM HEPES, 1% pen/strep, […] L glutamine, 0.5% human serum albumin) and living cells counted. Lipopolysaccharide (1 microg/ml; SIGMA) was added to the cells which were then transferred to 384 well tissue culture plates ([…]) containing titrated test compounds. The cells were incubated for 18 hours at 37° C. in serum free assay buffer and the level of TNFalpha in the supernatant was quantitated by AlphaLISA (PerkinElmer) by measuring fluorescence intensity at 615 nm.
Results were expressed as IC50 values calculated from inhibition curves using as controls the secretion in LPS stimulated wells and the secretion in cells incubated with 10 microM of a PDE4 inhibitor reference compound.

[2] = target: human PDE4D catalytic domain (UniProt no. Q08499 [S380-L740]) (Homo sapiens (Human), UniProt Q08499); assay: PDE4 assay (TR-FRET, cAMP hydrolysis); type: biochemical; conditions: read-out: PDE4 IC50 range
Procedure: The human PDE4D catalytic domain (UniProt no. Q08499 [S380-L740]) was incubated with a mixture of non-labelled cAMP (cyclic adenosine monophosphate) and fluorescein amidite (FAM) conjugated cAMP and titrated test or reference compound.
Following brief incubation the enzymatic reaction was stopped by addition of binding buffer containing nanoparticles with immobilized trivalent metal ions capable of binding 1) AMP phospho groups and 2) terbium (Tb) donor fluorophores. Subsequent excitation of the Tb donor triggered time-resolved FRET to adjacent FAM acceptor molecules resulting in light emission. In the presence of a PDE4 inhibitor, AMP generation was reduced resulting in a lower fluorescence signal. The cAMP phosphodiester is not bound by the detection system.
Results were expressed as IC50 values (nM) calculated from inhibition curves where the TR-FRET signal was normalized to Tb fluorescence intensity and the negative (DMSO vehicle) and positive (10 microM a PDE4 inhibitor reference compound) controls.

human PDE4D catalytic domain, sequence (Q08499 380-740): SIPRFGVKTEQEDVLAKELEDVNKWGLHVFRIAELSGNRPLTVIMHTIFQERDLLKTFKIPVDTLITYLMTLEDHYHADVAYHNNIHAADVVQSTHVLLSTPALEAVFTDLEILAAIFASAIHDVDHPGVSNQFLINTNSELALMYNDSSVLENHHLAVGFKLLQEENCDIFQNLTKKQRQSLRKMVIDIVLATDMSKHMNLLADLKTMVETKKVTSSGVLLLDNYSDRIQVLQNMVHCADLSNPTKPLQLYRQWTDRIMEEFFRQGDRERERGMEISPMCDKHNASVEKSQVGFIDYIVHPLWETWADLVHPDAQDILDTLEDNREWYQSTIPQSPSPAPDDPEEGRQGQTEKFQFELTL

Q: With `Cc1ncc(C(=O)OC2CN(c3nc4c(c(N(C)C5CCOCC5)n3)[S+]([O-])CC4)C2)o1` (centres unmarked) [Example 21, [1-[4-[methyl(tetra-hydropyran-4-yl)amino]-5-oxido-6,7-dihydro-thieno[3,2-d]pyrimidin-5-ium-2-yl]azetidin-3-yl] 2-methyloxazole-5-carboxylate] as the compound, how does the pIC50 [1] read?
A: Its pIC50 is > 7.00.

Q: What about the pIC50 [2] of the same compound?
A: Its pIC50 is > 7.00.

Q: What does the source list for `CN(c1nc(N2CC(OC(=O)c3ccns3)C2)nc2c1[S+]([O-])CC2)C1CCOCC1` (centres unmarked) [Example 22, [1-[4-[methyl(tetra-hydropyran-4-yl)amino]-5-oxido-6,7-dihydro-thieno[3,2-d]pyrimidin-5-ium-2-yl]azetidin-3-yl] isothiazole-5-carboxylate]?
A: pIC50 [1]: > 7.00; pIC50 [2]: > 7.00

Q: `CN(c1nc(N2CC(OC(=O)C3CCOCC3)C2)nc2c1[S+]([O-])CC2)C1CCOCC1` (centres unmarked) [Example 23, [1-[4-[methyl(tetra-hydropyran-4-yl)amino]-5-oxido-6,7-dihydro-thieno[3,2-d]pyrimidin-5-ium-2-yl]azetidin-3-yl] tetrahydropyran-4-carboxylate] was tested. Which pIC50 [1] did it give?
A: Its pIC50 is > 7.00.

Q: And the pIC50 [2]?
A: Its pIC50 is > 7.00.

Q: With `Cc1ccccc1C(=O)OC1CN(c2nc3c(c(N(C)C4CCOCC4)n2)[S+]([O-])CC3)C1` (centres unmarked) [Example 24, [1-[4-[methyl(tetra-hydropyran-4-yl)amino]-5-oxido-6,7-dihydro-thieno[3,2-d]pyrimidin-5-ium-2-yl]azetidin-3-yl] 2-methylbenzoate] as the compound, how does the pIC50 [1] read?
A: Its pIC50 is > 7.00.

Q: And the pIC50 [2]?
A: The pIC50 was > 7.00.

Q: `Cc1cccc(C(=O)OC2CN(c3nc4c(c(N(C)C5CCOCC5)n3)[S+]([O-])CC4)C2)c1` (centres unmarked) [Example 25, [1-[4-[methyl(tetra-hydropyran-4-yl)amino]-5-oxido-6,7-dihydro-thieno[3,2-d]pyrimidin-5-ium-2-yl]azetidin-3-yl] 3-methylbenzoate] was tested. Which pIC50 [1] did it give?
A: Its pIC50 is > 7.00.

Q: What about the pIC50 [2] of the same compound?
A: Its pIC50 is > 7.00.

Q: What does the source list for `Cc1ccc(C(=O)OC2CN(c3nc4c(c(N(C)C5CCOCC5)n3)[S+]([O-])CC4)C2)cc1` (centres unmarked) [Example 26, [1-[4-[methyl(tetra-hydropyran-4-yl)amino]-5-oxido-6,7-dihydro-thieno[3,2-d]pyrimidin-5-ium-2-yl]azetidin-3-yl] 4-methylbenzoate]?
A: pIC50 [1]: > 7.00; pIC50 [2]: > 7.00

Q: Which results are given for `Cc1ncc(C(=O)OC2CN(c3nc4c(c(N(C)C5CCOCC5)n3)[S+]([O-])CC4)C2)cn1` (centres unmarked) [Example 27, [1-[4-[methyl(tetra-hydropyran-4-yl)amino]-5-oxido-6,7-dihydro-thieno[3,2-d]pyrimidin-5-ium-2-yl]azetidin-3-yl] 2-methylpyrimidine-5-carboxylate]?
A: pIC50 [1]: > 7.00; pIC50 [2]: > 7.00

Q: Which results are given for `CN(c1nc(N2CC(OC(=O)c3ccc(F)cc3)C2)nc2c1[S+]([O-])CC2)C1CCOCC1` (centres unmarked) [Example 28, [1-[4-[methyl(tetra-hydropyran-4-yl)amino]-5-oxido-6,7-dihydro-thieno[3,2-d]pyrimidin-5-ium-2-yl]azetidin-3-yl] 4-fluorobenzoate]?
A: pIC50 [1]: > 7.00; pIC50 [2]: > 7.00

Q: Which results are given for `CN(c1nc(N2CC(OC(=O)c3ccccc3F)C2)nc2c1[S+]([O-])CC2)C1CCOCC1` (centres unmarked) [Example 29, [1-[4-[methyl(tetra-hydropyran-4-yl)amino]-5-oxido-6,7-dihydro-thieno[3,2-d]pyrimidin-5-ium-2-yl]azetidin-3-yl] 2-fluorobenzoate]?
A: pIC50 [1]: > 7.00; pIC50 [2]: > 7.00

Q: How did the pIC50 [1] turn out when `CCn1ccc(C(=O)OC2CN(c3nc4c(c(N(C)C5CCOCC5)n3)[S+]([O-])CC4)C2)n1` (centres unmarked) [Example 30, [1-[4-[methyl(tetra-hydropyran-4-yl)amino]-5-oxido-6,7-dihydro-thieno[3,2-d]pyrimidin-5-ium-2-yl]azetidin-3-yl] 1-ethylpyrazole-3-carboxylate] was run?
A: The pIC50 was > 7.00.

Q: And the pIC50 [2]?
A: The pIC50 was > 7.00.

Q: How did the pIC50 [1] turn out when `Cc1cc(C(=O)OC2CN(c3nc4c(c(N(C)C5CCOCC5)n3)[S+]([O-])CC4)C2)nn1C` (centres unmarked) [Example 31, [1-[4-[methyl(tetra-hydropyran-4-yl)amino]-5-oxido-6,7-dihydro-thieno[3,2-d]pyrimidin-5-ium-2-yl]azetidin-3-yl] l,5-dimethylpyrazole-3-carboxylate] was run?
A: Its pIC50 is > 7.00.

Q: What about the pIC50 [2] of the same compound?
A: The pIC50 was > 7.00.

Q: How did the pIC50 [1] turn out when `CCn1cc(C(=O)OC2CN(c3nc4c(c(N(C)C5CCOCC5)n3)[S+]([O-])CC4)C2)cn1` (centres unmarked) [Example 32, [1-[4-[methyl(tetra-hydropyran-4-yl)amino]-5-oxido-6,7-dihydro-thieno[3,2-d]pyrimidin-5-ium-2-yl]azetidin-3-yl] 1-ethylpyrazole-4-carboxylate] was run?
A: The pIC50 was > 7.00.

Q: And the pIC50 [2]?
A: Its pIC50 is > 7.00.

Q: With `CCc1nc(C(=O)OC2CN(c3nc4c(c(N(C)C5CCOCC5)n3)[S+]([O-])CC4)C2)co1` (centres unmarked) [Example 33, [1-[4-[methyl(tetra-hydropyran-4-yl)amino]-5-oxido-6,7-dihydro-thieno[3,2-d]pyrimidin-5-ium-2-yl]azetidin-3-yl] 2-ethyloxazole-4-carboxylate] as the compound, how does the pIC50 [1] read?
A: The pIC50 was > 7.00.

Q: What about the pIC50 [2] of the same compound?
A: The pIC50 was > 7.00.

Q: `Cc1cc(C(=O)OC2CN(c3nc4c(c(N(C)C5CCOCC5)n3)[S+]([O-])CC4)C2)sn1` (centres unmarked) [Example 34, [1-[4-[methyl(tetra-hydropyran-4-yl)amino]-5-oxido-6,7-dihydro-thieno[3,2-d]pyrimidin-5-ium-2-yl]azetidin-3-yl] 3-methylisothiazole-5-carboxylate] was tested. Which pIC50 [1] did it give?
A: Its pIC50 is > 7.00.

Q: And the pIC50 [2]?
A: The pIC50 was > 7.00.

Q: `Cc1nc(C(=O)OC2CN(c3nc4c(c(N(C)C5CCOCC5)n3)[S+]([O-])CC4)C2)cs1` (centres unmarked) [Example 35, [1-[4-[methyl(tetra-hydropyran-4-yl)amino]-5-oxido-6,7-dihydro-thieno[3,2-d]pyrimidin-5-ium-2-yl]azetidin-3-yl] 2-methylthiazole-4-carboxylate] was tested. Which pIC50 [1] did it give?
A: Its pIC50 is > 7.00.

Q: What about the pIC50 [2] of the same compound?
A: The pIC50 was > 7.00.

Q: `Cc1ncc(C(=O)OC2CN(c3nc4c(c(N(C)C5CCOCC5)n3)[S+]([O-])CC4)C2)s1` (centres unmarked) [Example 36, [1-[4-[methyl(tetra-hydropyran-4-yl)amino]-5-oxido-6,7-dihydro-thieno[3,2-d]pyrimidin-5-ium-2-yl]azetidin-3-yl] 2-methylthiazole-5-carboxylate] was tested. Which pIC50 [1] did it give?
A: The pIC50 was > 7.00.

Q: And the pIC50 [2]?
A: Its pIC50 is > 7.00.

Q: How did the pIC50 [1] turn out when `CN(c1nc(N2CC(OC(=O)[C@H]3CC[C@@H](O)CC3)C2)nc2c1[S+](O)CC2)C1CCOCC1` (some centres unmarked) [Example 37, [1-[4-[methyl(tetra-hydropyran-4-yl)amino]-5-oxido-6,7-dihydro-thieno[3,2-d]pyrimidin-5-ium-2-yl]azetidin-3-yl] 4-hydroxycyclohexane-carboxylate] was run?
A: The pIC50 was > 7.00.

Q: What about the pIC50 [2] of the same compound?
A: The pIC50 was > 7.00.

Q: How did the pIC50 [1] turn out when `CN(c1nc(N2CC(OC(=O)[C@H]3CC[C@@H](O)CC3)C2)nc2c1[S+](O)CC2)C1CCOCC1` (some centres unmarked) [Example 38, [1-[4-[methyl(tetra-hydropyran-4-yl)amino]-5-oxido-6,7-dihydro-thieno[3,2-d]pyrimidin-5-ium-2-yl]azetidin-3-yl] 4-hydroxycyclohexane-carboxylate] was run?
A: The pIC50 was > 7.00.

Q: And the pIC50 [2]?
A: Its pIC50 is > 7.00.

Q: With `CN(c1nc(N2CC(OC(=O)[C@H]3CC[C@H](O)CC3)C2)nc2c1[S+](O)CC2)C1CCOCC1` (some centres unmarked) [Example 39, [1-[4-[methyl(tetra-hydropyran-4-yl)amino]-5-oxido-6,7-dihydro-thieno[3,2-d]pyrimidin-5-ium-2-yl]azetidin-3-yl] 4-hydroxycyclohexane-carboxylate] as the compound, how does the pIC50 [1] read?
A: Its pIC50 is > 7.00.

Q: And the pIC50 [2]?
A: Its pIC50 is > 7.00.
